# Experiments:
# [1] = target: recombinant human (RH) DPP1 (Homo sapiens (Human), UniProt P53634); assay: Test A1: Fluorescence Assay for Recombinant Human (RH) DPP1; format: biochemical; conditions: Test A1 (Examples 1-35); rhDPP1 ~50 pM, 100 µM H-Gly-Arg-AMC, 22° C.
# Method: Test A1: Fluorescence Assay for Recombinant Human (RH) DPP1
# The activity of DPP1 was determined by measuring the enzymatic release of aminomethyl coumarin (AMC) from the peptide substrate (H-Gly-Arg-AMC), which leads to an increase in fluorescence intensity at λex =350 nm and λem =450 nm. The assay was carried out in black 384 well plates in a final volume of 50 µl at 22° C. The assay conditions contained the following: 25 mM piperazine buffer pH 5.0; 50 mM NaCl, 5 mM DTT; 0.01% (v/v) Triton X-100; 100 µMH-Gly-Arg-AMC and rhDPP1 (~50 pM). […] Routinely, inhibitors were pre-incubated with rhDPP1 for 30-60 min prior to the addition of the peptide substrate to start the reaction for a further 60 min at 22° C.
# [2] = Test B: In-vitro Competitive Aortic Tissue Binding Assay; set-up: species or system Han Wistar rats; conditions: 100 µM compound, competition with [14C]-labelled WO2010/128324 Ex. 3, categories strong binder, medium binder, no binder
# Method: To assist the design of DPP1 inhibitors with a decreased risk of binding to elastin rich tissues, such as the aorta, the in-vitro competitive aortic binding assay disclosed below (Test B) was developed to facilitate the selection process.
# Test B: In-vitro Competitive Aortic Tissue Binding Assay
# Aortic homogenate was prepared from the thoracic aortae of Han Wistar rats. Freshly isolated thoracic aortae were frozen, and later thawed and stripped of non-elastic material. […] Homogenate concentration was adjusted to 30 mg/mL in Puck’s saline, and aliquots were stored at -80° C. until use. Positive and negative control compounds and test compounds were made up to 100 mM in DMSO, and added to 1 mL aliquots of aortic homogenate in Puck’s saline for a final concentration of 100 µM. Homogenate samples were pre-incubated with test compounds at 37° C., rotating, overnight. [^14C]4-Amino-N-[(1S)-1-cyano-2-(4′-cyanobiphenyl-4-yl)ethyl]tetrahydro-2H-pyran-4-carboxamide was then added to all samples to a final concentration of 100 µM, and samples were incubated at 37° C., rotating, for a further 2 h. Protein was precipitated from each sample by the addition of 10 mL acetone, prechilled to -20° C. Samples were left overnight at -20° C. to allow complete precipitation. […] Precipitate was washed by resuspension in 10 mL 80% methanol in distilled water, and re-pelleted by centrifugation at 4,500 × g at 4° C. for 20 min. […] After final wash, precipitate was air-dried, and dissolved overnight in 1 mL NCSII Tissue Solubiliser. 1 mL aliquots of supernatants were added to 5 mL Ultima Gold scintillation fluid (Perkin Elmer, MA, U.S.A.), and 1 mL solubilised pellets were added to 5 mL Hionic-Fluor scintillation fluid (Perkin Elmer, MA, U.S.A.). Radioactivity of samples was determined on a Beckman LS6500 multipurpose scintillation counter (Beckman Coulter, IN, U.S.A.). […] Duplicate samples were tested for each compound on each experimental occasion, and at least two experiments were run for each test compound. […] 1-way ANOVA and Bonferroni’s multiple comparison tests were performed to calculate significance of differences from vehicle control.
# [3] = rat quantitative whole-body autoradiography (QWBA) studies; format: in vivo
# [4] = QWBA studies, literature (Schmidt et al. 1984); cited from earlier work
# Chain of recombinant human (RH) DPP1 (P53634 231-394): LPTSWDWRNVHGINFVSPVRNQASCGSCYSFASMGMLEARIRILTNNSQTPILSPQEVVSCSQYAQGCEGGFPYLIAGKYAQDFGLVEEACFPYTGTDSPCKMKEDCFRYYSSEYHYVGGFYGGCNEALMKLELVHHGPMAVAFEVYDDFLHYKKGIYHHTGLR
# Chain of recombinant human (RH) DPP1 (P53634 25-143): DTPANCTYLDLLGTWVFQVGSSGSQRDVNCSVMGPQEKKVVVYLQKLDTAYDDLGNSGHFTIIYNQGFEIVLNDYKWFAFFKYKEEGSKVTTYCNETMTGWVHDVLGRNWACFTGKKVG
# Chain of recombinant human (RH) DPP1 (P53634 395-463): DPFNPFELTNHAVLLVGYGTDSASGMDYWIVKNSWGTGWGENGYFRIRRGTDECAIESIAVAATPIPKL
Compound,"DPP1 activity, pIC50 [1]",Aortic Tissue Binding [2],further results
"N#Cc1ccc(-c2ccc(C[C@@H](C#N)NC(=O)[C@@H]3CNCCCO3)cc2)cc1 [Example 1, (2S)-N-[(1S)-1-Cyano-2-(4′-cyanobiphenyl-4-yl)ethyl]-1,4-oxazepane-2-carboxamide]",7.45,,
"Cc1cc(-c2ccc(C[C@@H](C#N)NC(=O)[C@@H]3CNCCCO3)cc2)cc2c1oc(=O)n2C [Example 3, (2S)-N-{(1S)-1-Cyano-2-[4-(3,7-dimethyl-2-oxo-2,3-dihydro-1,3-benzoxazol-5-yl)phenyl]ethyl}-1,4-oxazepane-2-carboxamide]",7.99,,
"Cn1c(=O)oc2ccc(-c3ccc(C[C@@H](C#N)NC(=O)[C@@H]4CNCCCO4)cc3)cc21 [Example 2, (2S)-N-{(1S)-1-cyano-2-[4-(3-methyl-2-oxo-2,3-dihydro-1,3-benzoxazol-5-yl)phenyl]ethyl}-1,4-oxazepane-2-carboxamide]",,No binder,
CC(c1ccc(Cl)c(Cl)c1)N1N=C(N)CC1=O (stereo not shown) [muzolimine],,,retention in the aorta [4]: retained selectively in the aorta

# Continued, in another order:
"DPP1 activity, pIC50 [1]",Aortic Tissue Binding [2],Compound,further results
,Strong binder (reference),"N#Cc1ccc(-c2ccc(C[C@@H](C#N)NC(=O)C3(N)CCOCC3)cc2)cc1 [WO2010/128324 (Ex. 3), 4-amino-N-[(1S)-1-cyano-2-(4′-cyanobiphenyl-4-yl)ethyl]tetrahydro-2H-pyran-4-carboxamide]",aortic retention [3]: high level of aortic retention
,Binder,N#Cc1ccc(-c2ccc(C[C@@H](C#N)NC(=O)[C@@H]3CCCCN3)cc2)cc1 [WO2009/074829 (Example 24)],
,Strong binder,Cn1c(=O)oc2ccc(-c3ccc(C[C@@H](C#N)NC(=O)C4(N)CCOCC4)cc3)cc21 [WO2010/128324 (Example 17)],
7.1,,"CS(=O)(=O)Oc1cccc(-c2ccc(C[C@@H](C#N)NC(=O)[C@@H]3CNCCCO3)cc2)c1 [Example 4, 4′-[(2S)-2-Cyano-2-{[(2S)-1,4-oxazepan-2-ylcarbonyl] Amino}ethyl] Biphenyl-3-yl methanesulfonate]",
,Medium binder,Cn1c(=O)oc2ccc(-c3ccc(C[C@@H](C#N)NC(=O)[C@@H]4CCCCN4)cc3)cc21 [WO2009/074829 (Example 96)],
